In series [1] the target is T1, RXRα (Homo sapiens, UniProt P19793).
T1 sequence (P19793 1-462): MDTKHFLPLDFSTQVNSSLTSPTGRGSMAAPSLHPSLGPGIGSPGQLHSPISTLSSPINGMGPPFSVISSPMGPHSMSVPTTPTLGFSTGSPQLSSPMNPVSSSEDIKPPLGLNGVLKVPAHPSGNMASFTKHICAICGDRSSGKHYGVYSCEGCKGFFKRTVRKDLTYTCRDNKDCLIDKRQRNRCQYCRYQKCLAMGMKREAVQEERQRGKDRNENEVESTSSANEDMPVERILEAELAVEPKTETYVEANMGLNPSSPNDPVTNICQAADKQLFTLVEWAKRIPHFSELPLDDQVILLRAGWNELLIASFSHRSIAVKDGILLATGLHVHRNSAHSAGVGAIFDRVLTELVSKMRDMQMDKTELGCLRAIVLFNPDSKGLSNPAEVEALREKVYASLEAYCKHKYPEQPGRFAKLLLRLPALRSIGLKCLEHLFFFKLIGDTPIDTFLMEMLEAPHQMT
Briefly: RXR homodimer co-transfection assay, antagonist mode, RXRα. The note with it: read-out: RXRα Potency IC50; antagonist potency in the presence of the known RXR agonist LGD1069; CV-1 cells.

Series [2] addresses T2, RXRβ (Mus musculus, UniProt P28704).
T2 sequence (P28704 1-520): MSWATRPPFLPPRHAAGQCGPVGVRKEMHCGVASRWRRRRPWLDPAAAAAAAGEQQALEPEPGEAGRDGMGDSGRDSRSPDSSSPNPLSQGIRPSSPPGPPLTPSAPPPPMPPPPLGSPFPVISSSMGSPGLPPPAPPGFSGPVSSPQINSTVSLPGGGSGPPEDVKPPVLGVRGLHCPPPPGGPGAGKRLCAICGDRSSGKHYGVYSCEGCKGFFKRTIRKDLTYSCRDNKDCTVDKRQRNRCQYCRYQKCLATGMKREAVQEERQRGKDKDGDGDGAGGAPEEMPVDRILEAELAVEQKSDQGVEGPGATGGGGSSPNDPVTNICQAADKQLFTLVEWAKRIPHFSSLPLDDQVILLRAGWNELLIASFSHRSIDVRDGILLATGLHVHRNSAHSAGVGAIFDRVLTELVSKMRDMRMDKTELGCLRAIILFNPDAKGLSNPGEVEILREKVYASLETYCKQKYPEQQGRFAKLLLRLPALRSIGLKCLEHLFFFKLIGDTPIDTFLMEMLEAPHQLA
Briefly: RXR homodimer co-transfection assay, antagonist mode, RXRβ. The note with it: read-out: RXRβ Potency IC50; antagonist potency in the presence of the known RXR agonist LGD1069; CV-1 cells.

The target of series [3] is T3, RXRγ (Mus musculus, UniProt P28705).
T3 sequence (P28705 1-463): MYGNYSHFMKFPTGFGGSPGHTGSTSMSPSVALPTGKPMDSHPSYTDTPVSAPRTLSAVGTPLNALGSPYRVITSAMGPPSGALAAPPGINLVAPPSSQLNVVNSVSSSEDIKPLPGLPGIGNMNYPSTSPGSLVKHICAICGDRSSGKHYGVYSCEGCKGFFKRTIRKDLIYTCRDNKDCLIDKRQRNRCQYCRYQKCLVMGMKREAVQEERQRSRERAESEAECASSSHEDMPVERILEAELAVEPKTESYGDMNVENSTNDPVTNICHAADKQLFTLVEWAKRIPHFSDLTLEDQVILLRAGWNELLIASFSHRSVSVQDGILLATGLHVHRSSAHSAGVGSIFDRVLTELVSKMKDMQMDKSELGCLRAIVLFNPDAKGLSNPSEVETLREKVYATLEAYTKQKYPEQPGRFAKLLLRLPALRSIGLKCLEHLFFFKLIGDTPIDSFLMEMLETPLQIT
Nature of the series: RXR homodimer co-transfection assay, antagonist mode, RXRγ. As to conditions: read-out: RXRγ Potency IC50; antagonist potency in the presence of the known RXR agonist LGD1069; CV-1 cells.

Series [4] addresses T1, RXRα. Briefly: RXR binding, RXRα. As to conditions: -v- tritiated LGD1069 and tritiated 9-cis retinoic acid. The protocol:
(§1) Non-specific binding was defined as that binding remaining in the presence of 500 nM of the appropriate unlabelled compound. At the end of the incubation period, bound from free ligand were separated. The amount of bound tritiated retinoids was determined by liquid scintillation counting of an aliquot (700 μL) of the supernatant fluid or the hydroxylapatite pellet.
(§2) After correcting for non-specific binding, IC50 values were determined. […] The IC50 value was determined graphically from a log-logit plot of the data. The Kd values were determined by application of the Cheng-Prussof equation to the IC50 values, the labeled ligand concentration and the Kd of the labeled ligand.

Series [5] addresses T2, RXRβ. Nature of the series: RXR binding, RXRβ. As to conditions: -v- tritiated LGD1069 and tritiated 9-cis retinoic acid. As for the experimental part: as §1, §2
The target in series [6] is T3, RXRγ. Briefly: RXR binding, RXRγ. The note with it: -v- tritiated LGD1069 and tritiated 9-cis retinoic acid. The protocol:
as §1, §2

In a further series the target is T4, RXRα:PPARα heterodimer (Homo sapiens, UniProt P19793).
T4 sequence (P19793 1-462): T1 sequence (P19793 1-462)
T4 sequence (Q07869 1-468 partner): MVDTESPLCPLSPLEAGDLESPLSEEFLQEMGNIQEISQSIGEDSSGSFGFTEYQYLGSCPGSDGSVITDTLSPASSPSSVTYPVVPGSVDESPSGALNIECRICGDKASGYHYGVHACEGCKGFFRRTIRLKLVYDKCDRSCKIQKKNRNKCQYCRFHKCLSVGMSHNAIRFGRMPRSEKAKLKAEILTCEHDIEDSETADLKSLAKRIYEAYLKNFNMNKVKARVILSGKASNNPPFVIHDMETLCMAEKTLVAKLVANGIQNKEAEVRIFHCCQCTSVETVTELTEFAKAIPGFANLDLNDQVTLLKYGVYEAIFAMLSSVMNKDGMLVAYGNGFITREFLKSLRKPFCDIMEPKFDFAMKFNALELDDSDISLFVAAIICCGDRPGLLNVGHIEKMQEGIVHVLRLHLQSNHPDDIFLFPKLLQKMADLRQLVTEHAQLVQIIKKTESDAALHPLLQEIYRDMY
Nature of the series: RXR heterodimer co-transfection assay (RXRα and PPARα, PPARα response element reporter).

The IC50 is the concentration that gives 50% inhibition. The Kd is the constant that tells how readily two partners part at equilibrium. Higher therefore signals a looser complex. On to “4-[(3-n-propyl-5,6,7,8-tetrahydro-5,5,8,8-tetramethyl-2-naphthyl)ethenyl]benzoic acid [Compound 102]”, for which the IC50 worked out at 0.386 µM on RXRα [1], 0.659 µM at RXRβ [2] and 1.67 µM at RXRγ [3]. The results for the equilibrium dissociation constant (Kd) at RXRα [4], at RXRβ [5] and at RXRγ [6] were 0.282 µM, 0.426 µM and 0.683 µM, respectively.
As to “4-[(3-propoxy-5,6,7,8-tetrahydro-5,5,8,8-tetramethyl-2-naphthyl)carbonyl]benzoic acid O-methyloxime [Compound 110]”, the values for the IC50 at RXRα [1], on RXRβ [2] and at RXRγ [3] were 0.08 µM, 0.217 µM and 0.211 µM, respectively. The results for the dissociation constant (Kd) on RXRα [4], on RXRβ [5] and at RXRγ [6] were 0.04 µM, 0.077 µM and 0.066 µM, respectively.
In the case of “4-[(3-propoxy-5,6,7,8-tetrahydro-5,5,8,8-tetramethyl-2-naphthyl)carbonyl]benzoic acid oxime [Compound 109]”, the IC50 on RXRα [1] was found to be 0.21 µM; on RXRβ [2] it was 0.193 µM; on RXRγ [3], 0.394 µM. The Kd on RXRα [4] is 0.037 µM; on RXRβ [5], 0.033 µM; on RXRγ [6] it was 0.047 µM.
What is called EC50 is the concentration giving half of the maximal effect. Higher therefore signals a less potent agent. As for `CC(C)(Oc1ccc(Cl)cc1)C(=O)O` [Clofibric acid, clofibric acid, reference compound], the concentration giving a half-maximal response (EC50) on RXRα:PPARα heterodimer stood at 40 µM. This compound yielded a Fold activation at RXRα:PPARα heterodimer (normalized luciferase values at 10−4M (clofibric acid) divided by values with vehicle) of 6.5 fold.
As for `CCCc1cc2c(cc1C1(c3ccc(C(=O)O)cc3)CC1)C(C)(C)CCC2(C)C` [Compound 103, 4-[(3-n-propyl-5,6,7,8-tetrahydro-5,5,8,8-tetramethyl-2-naphthyl)cyclopropyl]benzoic acid], the IC50 was 0.498 µM at RXRα [1], 0.701 µM at RXRβ [2] and 1.67 µM at RXRγ [3]. Also, the Kd on RXRα [4] was 0.389 µM; on RXRβ [5] it was 0.846 µM; on RXRγ [6] it was 0.936 µM.
With `CC(C=CC=C(C)c1cc2c(cc1OCc1ccccc1)C(C)(C)CCC2(C)C)=CC(=O)O` [Compound 128, (2E, 4E, 6Z)-7-[3-benzyloxy-5,6,7,8-tetrahydro-5,5,8,8-tetramethyl-2-naphthalen-2-yl]-3-methylocta-2,4,6-trienoic acid], the EC50 at RXRα:PPARα heterodimer came to 0.2 µM. The compound further gave a Fold activation at RXRα:PPARα heterodimer (normalized luciferase values at 10−5M divided by values with vehicle) of 4 fold. The Kd amounted to 0.009 µM at RXRα [4], 0.023 µM at RXRβ [5] and 0.027 µM on RXRγ [6].
As for `CCCOc1cc2c(cc1C1CC1C/C=C/C(C)=C/C(=O)O)C(C)(C)CCC2(C)C` (stereo not drawn) [Compound 152, (2E, 4E)-6-[2-(5,5,8,8-tetramethyl-3-propyloxy-5,6,7,8-tetrahydronaphthalen-2-yl)cyclopropan-1-yl]-3-methyl hexadienoic acid], the IC50 on RXRα [1] was 0.195 µM; at RXRβ [2], 0.337 µM; at RXRγ [3], 0.428 µM. For the same compound, the Kd was 0.008 µM on RXRα [4], 0.045 µM on RXRβ [5] and 0.021 µM at RXRγ [6].
For orientation: melting point means the temperature of the solid-liquid transition. `CC1(C)CCC(C)(C)c2cc(C(=O)c3ccc(C(=O)NO)cc3)c(OCc3ccc(Br)cc3)cc21` [Compound 161, 4-[(3-(4-bromobenzyloxy)-5,6,7,8-tetrahydro-5,5,8,8-tetramethyl-2-naphthyl)carbonyl]benzoic acid oxime]: the melting point was in the range of 221 to 223.5 °C.
On the same count and under the same terms, next, `CC1(C)CCC(C)(C)c2cc(C3(c4ccc(C(=O)O)cc4)OCCO3)c(OCc3ccccc3)cc21` [Compound 164, 4-[2-(3-benzyloxy-5,6,7,8-tetrahydro-5,5,8,8-tetramethyl-2-naphthyl)-[1,3]dioxolan-2-yl]benzoic acid]: 222 to 228 °C (dec.).
Consider “(2E, 4E)-7-[(5,5,8,8-tetramethyl-3-heptyloxy-5,6,7,8-tetrahydronaphthalen-2-yl)cyclopropan-1-yl]-3-methyl heptadienoic acid [Compound 156]”, for which the IC50 on RXRα [1] was 0.018 µM; on RXRβ [2], 0.062 µM; at RXRγ [3], 0.047 µM. The Kd on RXRα [4] came to 0.011 µM; on RXRβ [5], 0.007 µM; on RXRγ [6], 0.009 µM.
As to “(2E, 4E)-7-[(5,5,8,8-tetramethyl-3-propyloxy-5,6,7,8-tetrahydronaphthalen-2-yl)cyclopropan-1-yl]-3-methyl heptadienoic acid [Compound 155]”, the IC50 at RXRα [1] amounted to 0.024 µM; on RXRβ [2], 0.053 µM; at RXRγ [3], 0.037 µM. For the same compound, the Kd on RXRα [4] came out at 0.009 µM; on RXRβ [5] it was 0.009 µM; at RXRγ [6] it was 0.008 µM.

(Values after patent US6545049B1, “Dimer-selective RXR modulators and methods for their use” (Ligand Pharmaceuticals Incorporated, priority 1995, dated 2003).)
